Test results published in publication PMC8880564, “Design, Synthesis, and Biological Evaluation of a Novel VEGFR-2 Inhibitor Based on a 1,2,5-Oxadiazole-2-Oxide Scaffold with MAPK Signaling Pathway Inhibition” (Pharmaceuticals, 2022).

Tests used:
Experiment in all cases: NCI-60 one-dose SRB screening
Type in all cases: cell-based
M14 = conditions: Homo sapiens, M14, Melanoma, 10 µM one dose, 48 h, read-out: growth percentage
SR = conditions: Homo sapiens, Leukemia, 10 µM one dose, 48 h, read-out: growth percentage
IGROV1 = conditions: Homo sapiens, IGROV-1, IGROV1, Ovarian Cancer, 10 µM one dose, 48 h, read-out: growth percentage
SW-620 = conditions: Homo sapiens, SW-620, Colon Cancer, 10 µM one dose, 48 h, read-out: growth percentage
SF-268 = conditions: Homo sapiens, SF-268, CNS Cancer, 10 µM one dose, 48 h, read-out: growth percentage
MDA-MB-231/ATCC = conditions: Homo sapiens, Breast Cancer, 10 µM one dose, 48 h, read-out: growth percentage
UO-31 = conditions: Homo sapiens, UO-31, Renal Cancer, 10 µM one dose, 48 h, read-out: growth percentage
SF-539 = conditions: Homo sapiens, SF-539, CNS Cancer, 10 µM one dose, 48 h, read-out: growth percentage
U251 = conditions: Homo sapiens, U-251, U251, CNS Cancer, 10 µM one dose, 48 h, read-out: growth percentage
T-47D = conditions: Homo sapiens, T47D, Breast Cancer, 10 µM one dose, 48 h, read-out: growth percentage
UACC-62 = conditions: Homo sapiens, UACC-62, Melanoma, 10 µM one dose, 48 h, read-out: growth percentage
DU-145 = conditions: Homo sapiens, DU-145, Prostate Cancer, 10 µM one dose, 48 h, read-out: growth percentage
NCI-H522 = conditions: Homo sapiens, NCI-H522, Non-Small Cell Lung Cancer, 10 µM one dose, 48 h, read-out: growth percentage
NCI/ADR-RES = conditions: Homo sapiens, Ovarian Cancer, 10 µM one dose, 48 h, read-out: growth percentage
SK-MEL-2 = conditions: Homo sapiens, SK-MEL-2, Melanoma, 10 µM one dose, 48 h, read-out: growth percentage
HOP-92 = conditions: Homo sapiens, HOP-92, Non-Small Cell Lung Cancer, 10 µM one dose, 48 h, read-out: growth percentage
RPMI-8226 = conditions: Homo sapiens, RPMI-8226, Leukemia, 10 µM one dose, 48 h, read-out: growth percentage
HCT-15 = conditions: Homo sapiens, HCT-15, Colon Cancer, 10 µM one dose, 48 h, read-out: growth percentage
ACHN = conditions: Homo sapiens, Renal Cancer, 10 µM one dose, 48 h, read-out: growth percentage
SK-MEL-28 = conditions: Homo sapiens, SK-MEL-28, Melanoma, 10 µM one dose, 48 h, read-out: growth percentage
NCI-H23 = conditions: Homo sapiens, NCI-H23, Non-Small Cell Lung Cancer, 10 µM one dose, 48 h, read-out: growth percentage
SK-MEL-5 = conditions: Homo sapiens, SK-MEL-5, Melanoma, 10 µM one dose, 48 h, read-out: growth percentage

`Cc1nc(Nc2ccc(OCc3c(-c4ccccc4)no[n+]3[O-])cc2)c2cnn(-c3ccccc3)c2n1` [6b, 3-((4-((6-methyl-1-phenyl-1H-pyrazolo[3,4-d]pyrimidin-4-yl)amino)phenoxy)methyl)-4-phenyl-1,2,5-oxadiazole 2-oxide] showed an activity at 10 µM (M14) of 103%, an activity at 10 µM (SR) of 89.1% and an activity at 10 µM (IGROV1) of 101%. The activity at 10 µM (SW-620) was 120%, the activity at 10 µM (SF-268) was 103% and the activity at 10 µM (MDA-MB-231/ATCC) was 106%. It also gave an activity at 10 µM (UO-31) of 95%, an activity at 10 µM (SF-539) of 102% and an activity at 10 µM (U251) of 104%. The activity at 10 µM (T-47D) was 106%, the activity at 10 µM (UACC-62) was 88.4% and the activity at 10 µM (DU-145) was 105%. The activity at 10 µM (NCI-H522) was 96.3%, the activity at 10 µM (NCI/ADR-RES) was 103% and the activity at 10 µM (SK-MEL-2) was 109%. It also gave an activity at 10 µM (HOP-92) of 91.4%, an activity at 10 µM (RPMI-8226) of 114% and an activity at 10 µM (HCT-15) of 96.4%. It also gave an activity at 10 µM (ACHN) of 105%, an activity at 10 µM (SK-MEL-28) of 101% and an activity at 10 µM (NCI-H23) of 102%. It also gave an activity at 10 µM (SK-MEL-5) of 103%.
Compound `Cc1nn(-c2ccc(Br)cc2)c2nc(CNc3ccc(NCc4c(-c5ccccc5)no[n+]4[O-])cc3)[nH]c(=O)c12` [14c, 3-(((4-(((1-(4-bromophenyl)-3-methyl-4-oxo-4,5-dihydro-1H-pyrazolo[3,4-d]pyrimidin-6-yl)methyl)amino)phenyl)amino)methyl)-4-phenyl-1,2,5-oxadiazole 2-oxide] has an activity at 10 µM (M14) of 107%, an activity at 10 µM (SR) of 95.2% and an activity at 10 µM (IGROV1) of 85.6%. For the same compound, the activity at 10 µM (SW-620) was 111%, the activity at 10 µM (SF-268) was 95.2% and the activity at 10 µM (MDA-MB-231/ATCC) was 96.5%. The activity at 10 µM (UO-31) was 83.4%, the activity at 10 µM (SF-539) was 102% and the activity at 10 µM (U251) was 99.1%. For the same compound, the activity at 10 µM (T-47D) was 103%, the activity at 10 µM (UACC-62) was 105% and the activity at 10 µM (DU-145) was 107%. For the same compound, the activity at 10 µM (NCI-H522) was 90.8%, the activity at 10 µM (NCI/ADR-RES) was 101% and the activity at 10 µM (SK-MEL-2) was 107%. The activity at 10 µM (HOP-92) was 108%, the activity at 10 µM (RPMI-8226) was 112% and the activity at 10 µM (HCT-15) was 97.3%. It also gave an activity at 10 µM (ACHN) of 96.9%, an activity at 10 µM (SK-MEL-28) of 103% and an activity at 10 µM (NCI-H23) of 103%. It also gave an activity at 10 µM (SK-MEL-5) of 104%.
